Entries after “also recorded” stand apart in the source; their conditions may differ. Non-standard residues stand in square brackets, D forms with d. Residues, ends and D or L forms follow the SMILES beside them. Nle = CCCC[C@H](N)C(=O)O
Key:
p65/p50 complex = assay: DHFR PCA for NFkB (p65/p50) translocation in CHO DUKXB11 cells; format: cell-based, mouse and human; details: 40 micrograms/ml ALLN
Protocol: Coding regions of NFkB subunits p65 and p50 (corresponding to N-terminal 436 amino acids) were PCR amplified from mouse and human cDNAs, respectively, and ligated in-frame downstream of a 15 amino acid flexible linker (GGGGS)3 (SEQ ID No.30) followed by DHFR fragment F[1,2] or F[3] in pCDNA3.1zeo (Invitrogen). IkBa was subcloned separately into pCDNA3.1. For transient expression of these genes, 8×10e4 DHFR-deficient CHO DXB11 cells were seeded into 12 well plates and transfected 24 hours later with [F1,2]-p65, [F3]-p50, and IkBa at the molar ratio of 1:1:1 for each fusion construct using Fugene (Boehringer Mannheim) according to manufacturer's instructions. For controls, where indicated, empty pCDNA3.1 was used in place of IkBa. A total of 1 microgram of DNA was used per well.
Forty-eight hours post-transfection, complexes of F[1,2]-p65 and [F3]-p50 were detected by fluorescence microscopy. […]
To examine the effect of proteasome inhibition on NFkB nuclear translocation, the transiently transfected cells expressing the DHFR PCA were treated with 40 micrograms/ml ALLN (Calbiochem) for 1 hr prior to TxR-MTX labeling and for the subsequent duration of the experiment. The cells were rinsed with PBS and the subcellular location of NFkB complexes were visualized using a Nikon Eclipse TE2000 fluorescence microscope at excitation and emission wavelengths of 580 nm and 625 nm, respectively. […]

IkBa/p65 complex = assay: stable cell line IkBa/p65 YFP PCA, mean fluorescence intensity; format: cell-based
Description: TNF-induced degradation of IkBa, which is a consequence of ubiquitination and proteasomal degradation, frees bound NFkB and results in translocation of that transcription factor into the nucleus. Thus, disassembly of the IkBa-NFkB complex is a key step in NFkB-mediated gene regulation. To visualize regulation of the NFkB pathway at this level, we engineered a stable cell line expressing an IkBa/p65 PCA (FIG. 14). ERK1/MEK1 was used as a control. ERK1 was ligated to the 5′ end of YFP[1] while IkBa and MEK1 were appended to YFP[2] in N-terminal fusions. […]
Cells expressing IkBa-YFP[1]/YFP[2]-p65 or the controls, MEK-YFP[2]/ERK1-YFP[1], were seeded at 20,000 cells/well in black-walled poly-lysine coated 96 well plate (Greiner). […] Fluorescence was visualized and images were acquired using a Discovery-1 automated fluorescence imager (Molecular Devices, Inc.) equipped with excitation and emission filters 470/35 and 535/60, respectively. […]
Images were analyzed using Image J. Total mean fluorescence intensity for all cells was assessed by adding weighted mean fluorescence intensities for the nucleus and cytoplasm for individual cells in the population for a given condition +/− standard error. […] There was no effect of TNF treatment on the fluorescence intensity of the control (MEK/ERK) PCA.

CCCC[C@@H](C=O)NC(=O)[C@H](CC(C)C)NC(=O)[C@H](CC(C)C)NC(C)=O [ALLN] (Ac-Leu-Leu-[Nle]-aldehyde)
effect on TNF-induced cytoplasmic-to-nuclear translocation of NFkB complexes in DHFR PCA (p65/p50 complex): inhibition of the nuclear translocation; also recorded: inhibits | inhibition of the TNF-induced reduction of IkBa/p65 complexes (IkBa/p65 complex; ALLN treatment for 4 hr): 98% | effect on TNF-induced reduction in IkBa/p65 signal (in words) (IkBa/p65 complex; FIG. 14): blocked

From patent US7062219B2, “Protein fragment complementation assays for high-throughput and high-content screening” (Odyssey Thera Inc., priority 1997, dated 2006)
